Reference: patent US9446071B2, “Antimicrobially active compositions based on zinc compound, glycerine monoalkyl ether and antioxidant” (L'AIR LIQUIDE SOCIETE ANONYME POUR L'ETUDE ET …, priority 2012, dated 2016)

System: Streptococcus mutans ATCC: 25175
Experiment: Minimal inhibitory concentration (method C) of mouthwash formulations
Assay type: cell-based
Conditions: pH 4
Procedure: The minimal inhibitory concentration which is required by a preparation in order to inhibit the growth of a defined microorganism is tested.
5 ml of the given product test solution (optionally doubly concentrated) is mixed with 5 ml of doubly concentrated CSS broth. The tubes are then inoculated with 0.1 ml of a test suspension containing 10^8 microbes.
The assessment is performed after 48 hr incubation at 36° C.±1° C. (C. albicans 30° C.±1° C.).
Further, the action of combinations according to the invention against the caries-causing organism Streptococcus mutans in the mouthwash formulations shown in Table 10 was tested.
The pH of the formulations was adjusted to pH 4.

Row | Compound | Activity against Streptococcus mutans
1 | O=C([O-])CC(O)(CC(=O)[O-])C(=O)[O-].O=C([O-])CC(O)(CC(=O)[O-])C(=O)[O-].[Zn+2].[Zn+2].[Zn+2] [TZC, trizinc citrate] | not sufficient
2 | PEG-40 macrogol glycerol hydroxystearate [Mghs] | no intrinsic activity
